Usually EC50 stands for the midpoint of the concentration-response curve.

The test system of the assay is RSV Long strain. Description: Viral cytopathic effect (CPE) assay, anti-RSV activity. The following applies: human respiratory syncytial virus, 144 h, RSV Long strain (ATCC); cell viability after 6 days, Cell Counting kit-8. In kind it is cell-based, Respiratory Syncytial Virus. The essentials: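 EC50 was derived from CCK-8 viability at 450/630 nm measured 6 days post-infection. Infection used enough RSV Long strain for approximately 80–90% cytopathic effect, in the presence of half-log serially diluted compound. Cells were plated the day before at 6×10^3 per well in DMEM/10% FBS.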
For `Cc1ccc2nc(N3CCS(=O)(=O)c4ccc(F)cc4C3)cc(NCC3(N)COC3)c2c1` [Example 1-3, N-[(3-Aminooxetan-3-yl)methyl]-2-(7-fluoro-1,1-dioxido-2,3-dihydro-1,4-benzothiazepin-4(5H)-yl)-6-methylquinolin-4-amine], the concentration for a half-maximal effect (EC50) came to 0.072 µM. Under `Cc1ccc2nc(N3CCC(F)(F)c4ccccc4C3)cc(NCC(O)CO)c2c1` (stereo not drawn) [Example 110-5, 3-{[2-(5,5-Difluoro-1,3,4,5-tetrahydro-2H-2-benzazepin-2-yl)-6-methylquinolin-4-yl]amino}propane-1,2-diol] stands 1.66 µM; under `Cc1ccc2nc(N3CCS(=O)(=O)c4ccccc4C3)cc(NC(=O)C3CCCCN3)c2c1` (stereo not drawn) [Example 47-5, N-[2-(1,1-Dioxido-2,3-dihydro-1,4-benzothiazepin-4(5H)-yl)-6-methylquinolin-4-yl]piperidine-2-carboxamide], 0.835 µM. The same measure for `NCCCNc1cc(N2CCS(=O)(=O)c3ccccc3C2)nc2c(Cl)cccc12` [Example 9-12, N-[8-Chloro-2-(1,1-dioxido-2,3-dihydro-1,4-benzothiazepin-4(5H)-yl)quinolin-4-yl]propane-1,3-diamine]: 2.66 µM.

Consider `Cc1ccc2nc(N3CCS(=O)(=O)c4ccccc4C3)cc(N[C@H]3CC[C@@H](N)CC3)c2c1` [Example 3-18, cis-N-[2-(1,1-Dioxido-2,3-dihydro-1,4-benzothiazepin-4(5H)-yl)-6-methylquinolin-4-yl]-cyclohexane-1,4-diamine], for which it took 0.024 µM to reach a half-maximal effect (EC50). The same measure for `NCCCNc1cc(N2CCS(=O)(=O)c3ccccc3C2)nc2ccc(O)cc12` [Example 29, 4-[(3-Aminopropyl)amino]-2-(1,1-dioxido-2,3-dihydro-1,4-benzothiazepin-4(5H)-yl)quinolin-6-ol]: 0.042 µM; for `COc1cccc2c1S(=O)(=O)CCN(c1cc(NCC3(N)COC3)c3cc(C)ccc3n1)C2` [Example 65, N-[(3-Aminooxetan-3-yl)methyl]-2-(9-methoxy-1,1-dioxido-2,3-dihydro-1,4-benzothiazepin-4(5H)-yl)-6-methylquinolin-4-amine]: 0.322 µM.

As for `OCc1cc(N2CCCc3ccccc3C2)nc2ccccc12` [Example 129, [2-(1,3,4,5-Tetrahydro-2H-2-benzazepin-2-yl)quinolin-4-yl]methanol], the concentration giving a half-maximal response (EC50) turned out to be 7.88 µM. Under `Cc1ccc2nc(N3CCS(=O)(=O)c4ccccc4C3)cc(Nc3ccc(N)cc3)c2c1` [Example 15-2, N-[2-(1,1-Dioxido-2,3-dihydro-1,4-benzothiazepin-4(5H)-yl)-6-methylquinolin-4-yl]benzene-1,4-diamine] stands 7.99 µM; under `Cc1ccc2nc(N3CCS(=O)(=O)c4ccccc4C3)cc(NCCC3(N)COC3)c2c1` [Example 2-7, N-[2-(3-Aminooxetan-3-yl)ethyl]-2-(1,1-dioxido-2,3-dihydro-1,4-benzothiazepin-4(5H)-yl)-6-methylquinolin-4-amine], 0.234 µM.

In turn, `Cc1ccc2nc(N3CCC(F)(F)c4ccccc4C3)cc(NCCN)c2c1` [Example 111-6, N-[2-(5,5-Difluoro-1,3,4,5-tetrahydro-2H-2-benzazepin-2-yl)-6-methylquinolin-4-yl]ethane-1,2-diamine] registered a concentration giving a half-maximal response (EC50) of 0.062 µM. The same measure for `Cc1ccc2nc(N3CCCc4cc(F)ccc4C3)cc(NCCN)c2c1` [Example 118-13, N-[2-(7-Fluoro-1,3,4,5-tetrahydro-2H-2-benzazepin-2-yl)-6-methylquinolin-4-yl]ethane-1,2-diamine]: 0.463 µM; for `COc1ccc2c(c1)S(=O)(=O)CCN(c1cc(NCC3(N)COC3)c3cc(C)ccc3n1)C2` [Example 1-1, N-[(3-Aminooxetan-3-yl)methyl]-2-(8-methoxy-1,1-dioxido-2,3-dihydro-1,4-benzothiazepin-4(5H)-yl)-6-methylquinolin-4-amine]: 0.002 µM; for `CNCCNc1cc(N2CCS(=O)(=O)c3ccccc3C2)nc2ccc(Cl)cc12` [Example 9-32, N-[6-Chloro-2-(1,1-dioxido-2,3-dihydro-1,4-benzothiazepin-4(5H)-yl)quinolin-4-yl]-N′-methylethane-1,2-diamine]: 0.063 µM. The same measure for `Cc1ccc2nc(N3CCS(=O)(=O)c4ccccc4C3)cc(NCC(C)(C)CN)c2c1` [Example 9-14, N-[2-(1,1-Dioxido-2,3-dihydro-1,4-benzothiazepin-4(5H)-yl)-6-methylquinolin-4-yl]-2,2-dimethylpropane-1,3-diamine]: 0.025 µM; for `Cc1ccc2nc(N3CCS(=O)(=O)c4ccccc4C3)cc(NCCCO)c2c1` [Example 9-5, 3-{[2-(1,1-Dioxido-2,3-dihydro-1,4-benzothiazepin-4(5H)-yl)-6-methylquinolin-4-yl]amino}propan-1-ol]: 0.179 µM; for `Cc1ccc2nc(N3CCS(=O)(=O)c4ccccc4C3)cc(N3CC(N)CC3=O)c2c1` (stereo not drawn) [Example 73, 4-Amino-1-[2-(1,1-dioxido-2,3-dihydro-1,4-benzothiazepin-4(5H)-yl)-6-methylquinolin-4-yl]pyrrolidin-2-one]: 6.98 µM.

Consider `Cc1ccc2nc(N3CCS(=O)(=O)c4ccccc4C3C)cc(NCC(O)CO)c2c1` (stereo not drawn) [Example 32-5, 3-{[6-Methyl-2-(5-methyl-1,1-dioxido-2,3-dihydro-1,4-benzothiazepin-4(5H)-yl)quinolin-4-yl]amino}propane-1,2-diol], for which the response was half-maximal at 2.58 µM (EC50). Under `NC1(CNc2nc(N3CC[S+]([O-])c4ccccc4C3)nc3ccc(Cl)cc23)COC1` (stereo not drawn) [Example 57-5, N-[(3-Aminooxetan-3-yl)methyl]-6-chloro-2-(1-oxido-2,3-dihydro-1,4-benzothiazepin-4(5H)-yl)quinazolin-4-amine] stands 0.027 µM; under `N[C@@H]1CN(c2cc(N3CCS(=O)(=O)c4ccccc4C3)nc3ccc(Cl)cc23)C[C@H]1O` (relative stereo) [Example 19-6, trans-4-Amino-1-[6-chloro-2-(1,1-dioxido-2,3-dihydro-1,4-benzothiazepin-4(5 H)-yl)quinolin-4-yl]pyrrolidin-3-ol], 0.054 µM; under `Cc1ccc2nc(N3CCS(=O)(=O)c4ccccc4C3)cc(NCC(N)=O)c2c1` [Example 36-5, N^˜2^˜-[2-(1,1-Dioxido-2,3-dihydro-1,4-benzothiazepin-4(5H)-yl)-6-methylquinolin-4-yl]glycinamide], 0.026 µM. The same measure for `NC1(CNc2cc(N3CCS(=O)(=O)c4ccccc4C3)nc3ccc(CO)cc23)COC1` [Example 3-23, [4-{[(3-Aminooxetan-3-yl)methyl]amino}-2-(1,1-dioxido-2,3-dihydro-1,4-benzothiazepin-4(5H)-yl)quinolin-6-yl]methanol]: 0.002 µM; for `Cc1ccc2nc(N3CCC(F)(F)c4ccccc4C3)cc(N3CCCNCC3)c2c1` [Example 111-2, 2-[4-(1,4-Diazepan-1-yl)-6-methylquinolin-2-yl]-5,5-difluoro-2,3,4,5-tetrahydro-1H-2-benzazepine]: 1.34 µM; for `Cc1ccc2nc(N3CCS(=O)(=O)c4ccccc4C3)cc(NC[C@@H](N)CO)c2c1` [Example 37-2, (2R)-2-Amino-3-{[2-(1,1-dioxido-2,3-dihydro-1,4-benzothiazepin-4(5H)-yl)-6-methylquinolin-4-yl]amino}propan-1-ol]: 0.043 µM. Take `Cc1ccc2nc(N3CCS(=O)(=O)c4ccccc4C3)cc(NCCCCCCN)c2c1` [Example 3-56, N-[2-(1,1-Dioxido-2,3-dihydro-1,4-benzothiazepin-4(5H)-yl)-6-methylquinolin-4-yl]hexane-1,6-diamine]: the EC50 amounted to 0.716 µM. Under `COC(C)(C)C(=O)Nc1cc(N2CCS(=O)(=O)c3ccccc3C2)nc2ccc(C)cc12` [Example 41, N-[2-(1,1-Dioxido-2,3-dihydro-1,4-benzothiazepin-4(5H)-yl)-6-methylquinolin-4-yl]-2-methoxy-2-methylpropanamide] stands 2.63 µM; under `Cc1ccc2nc(N3CCC(F)(F)c4ccccc4C3)cc(NCC3(CN)CS(=O)(=O)C3)c2c1` [Example 112-1, N-{[3-(Aminomethyl)-1,1-dioxidothietan-3-yl]methyl}-2-(5,5-difluoro-1,3,4,5-tetrahydro-2H-2-benzazepin-2-yl)-6-methylquinolin-4-amine], 3.74 µM. Under `NCCCNc1cc(N2CCS(=O)(=O)c3ccccc3C2)nc2cccc(Cl)c12` [Example 9-13, N-[5-Chloro-2-(1,1-dioxido-2,3-dihydro-1,4-benzothiazepin-4(5H)-yl)quinolin-4-yl]propane-1,3-diamine] stands 0.701 µM; under `Cc1ccc2nc(N3CCS(=O)(=O)c4ccccc4C3)cc(NC3CNCC34COC4)c2c1` (stereo not drawn) [Example 2-6, 2-(1,1-Dioxido-2,3-dihydro-1,4-benzothiazepin-4(5H)-yl)-6-methyl-N-(2-oxa-6-azaspiro[3.4]oct-8-yl)quinolin-4-amine], 0.021 µM. The same measure for `Cc1ccc2nc(N3CCS(=O)(=O)c4ccccc4C3)cc(N3CCC(NC4COC4)C3)c2c1` (stereo not drawn) [Example 45-2, 1-[2-(1,1-Dioxido-2,3-dihydro-1,4-benzothiazepin-4(5H)-yl)-6-methylquinolin-4-yl]-N-(oxetan-3-yl)pyrrolidin-3-amine]: 0.253 µM; for `Cc1ccc2nc(N3CCS(=O)(=O)c4ccccc4C3)cc(NCC(O)CC(=O)O)c2c1` (stereo not drawn) [Example 11-3, 4-{[2-(1,1-Dioxido-2,3-dihydro-1,4-benzothiazepin-4(5H)-yl)-6-methylquinolin-4-yl]amino}-3-hydroxybutanoic acid]: 0.922 µM.

Molecule `NCCCNc1cc(N2CCS(=O)(=O)c3ccccc3C2)nc2ccc(OCCO)cc12` [Example 30-1, 2-({4-[(3-Aminopropyl)amino]-2-(1,1-dioxido-2,3-dihydro-1,4-benzothiazepin-4(5 H)-yl)quinolin-6-yl}oxy)ethanol] showed an EC50 of 0.317 µM. Under `Cc1ccc2nc(N3CCS(=O)(=O)c4ccccc4C3)cc(NC3(CCO)COC3)c2c1` [Example 5-12, 3-{[2-(1,1-Dioxido-2,3-dihydro-1,4-benzothiazepin-4(5H)-yl)-6-methylquinolin-4-yl]amino}oxetan-3-ethanol] stands 6.25 µM.

For the origin of these results see US8871756B2 (Hoffmann-La Roche Inc., priority 2011, dated 2014).
